Test results taken from patent publication US8969554B2, “6-acyl-1,2,4-triazine-3,5-dione derivative and herbicides” (Kumiai Chemical Industry Co., Ltd., priority 2010, dated 2015).

How the values were obtained:
Format in all cases: in vivo
Set-up in all cases: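 index 0 to 10 in 10% steps of herbicidal effect with 10 meaning complete death and 0 below 10%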
Monochoria vaginalis = test: Herbicidal activity by paddy field soil treatment (Test Example 1); details: 1000 g of effective component per hectare, evaluated on day 21 after the treatment, criteria of Table 72
Procedure: (§1) Test for Determining Herbicidal Activity by Paddy Field Soil Treatment A 100 cm^2 wide plastic pot was filled with a paddy field soil and, after watering and shuffling, seeds of each of Echinochloa oryzicola, Monochoria vaginalis, and Scirpus juncoides Rocxb. were sowed and watered to a depth of 3 cm. On the next day, the wettable powder obtained in view of Formulation example 1 was diluted with water and applied on water surface. The application amount was 1000 g of effective component per hectare. After that, the plants were cultivated in a greenhouse, and on day 21 after the treatment, evaluation was made by the criteria of Table 72 for determining the herbicidal effects. [table]

Scirpus juncoides Rocxb. = test: as above; details: applied on water surface, 1000 g of effective component per hectare, day 21 after the treatment
Procedure: as §1

A. retroflexus = test: Herbicidal activity by field foliage treatment (Test example 3); details: 1000 g effective component per hectare, day 14 after the treatment
Procedure: (§2) [table] Test for Determining Herbicidal Activity by Field Foliage Treatment A 80 cm^2 wide plastic pot was filled with a field soil and seeds of each of Indian millet and A. retroflexus were sowed and then incubated for 2 weeks in a green house. The wettable powder produced with reference to the Formulation example 1 was diluted water, and applied from the air to entire body of the plant as foliage treatment by using a small sprayer in an amount of 1000 liters per hectare so that the effective component is 1000 g per hectare. After that, the plants were cultivated in a greenhouse, and on day 14 after the treatment, evaluation was made by the criteria described in Table 72 for determining the herbicidal effects.

Indian millet = test: as above; details: 1000 g effective component per hectare, day 14 after the treatment
Procedure: as §2

Echinochloa oryzicola = test: Herbicidal activity by paddy field soil treatment (Test Example 1); details: 1000 g of effective component per hectare, evaluated on day 21 after the treatment, criteria of Table 72
Procedure: as §1

Structure (SMILES) | Herbicidal effects index number, Monochoria vaginalis (Monochoria vaginalis) | herbicidal effect index, S. juncoides Rocxb. (Scirpus juncoides Rocxb.) | herbicidal effect index, Amaranthus retroflexus (A. retroflexus) | herbicidal effect index, Abutilon theophrasti (Indian millet) | Herbicidal effects index number, Echinochloa oryzicola (Echinochloa oryzicola)
Cn1ncc(C(=O)c2nn(C)c(=O)n(-c3ccccc3)c2=O)c1O [II-50, 6-(5-hydroxy-1-methyl-1H-pyrazole-4-carbonyl)-2-methyl-4-phenyl-1,2,4-triazine-3,5 (2H, 4H)-dione] | 8 | 7 | 10 | 8 | –
Cc1ccc(-n2c(=O)c(C(=O)O)nn(C)c2=S)nc1 [V-291] | 8 | – | – | – | –
CN(c1ccccc1)n1c(=O)c(C(=O)C2=C(O)CCCC2=O)nn(C)c1=O [I-466] | 10 | 10 | 10 | 10 | 8
Cn1nc(C(=O)C2=C(O)CCCC2=O)c(=O)n(Cc2ccccc2)c1=O [I-205] | 10 | 10 | 10 | 10 | 7
COc1ccc(-n2c(=O)c(C(=O)C3=C(O)CCCC3=O)nn(C)c2=O)cc1 [Compound I-62] | 8 | – | 10 | 9 | –
CCCCCCCCn1c(=O)c(C(=O)C2=C(O)CCCC2=O)nn(C)c1=O [I-295] | – | – | 8 | 9 | –
Cn1nc(C(=O)C2=C(O)CCCC2=O)c(=O)n(N2CCS(=O)(=O)CC2)c1=O [I-204] | 8 | – | 7 | – | –
CN(c1ccccc1)n1c(=O)c(C(=O)O)nn(C)c1=O [V-359] | 10 | 10 | 10 | 10 | 8
Cn1nc(C(=O)O)c(=O)n(-c2c(F)c(F)c(F)c(F)c2F)c1=O [V-367] | 10 | 8 | – | 10 | 8
Cn1nc(C(=O)C2=C(O)CCCC2=O)c(=O)n(-c2c(F)c(F)c(F)c(F)c2F)c1=O [I-473] | 10 | 8 | 3 | 10 | 8
Cc1cc(C)c(-n2c(=O)c(C(=O)O)nn(C)c2=O)c(C)c1 [V-366] | 10 | 8 | 10 | 7 | –
Cc1cc(C)c(-n2c(=O)c(C(=O)C3=C(O)CCCC3=O)nn(C)c2=O)c(C)c1 [I-472] | 10 | 8 | 10 | 7 | –
CCCS(=O)(=O)Oc1c(C(=O)c2nn(C)c(=O)n(-c3ccccc3)c2=O)cnn1C(C)C [II-267, 1-isopropyl-4-(2-methyl-3,5-dioxo-4-phenyl-2,3,4,5-tetrahydro-1,2,4-triazine-6-ylcarbonyl)-1H-pyrazole-5-yl propane-1-sulfonate] | 8 | – | – | 9 | –
Cn1nc(C(=O)C2=C(O)CCCC2=O)c(=O)n(-c2cc(Cl)c(S(C)(=O)=O)c(Cl)c2)c1=O [I-301] | 10 | 10 | 10 | 7 | 10
O=C1CCCC(O)=C1C(=O)c1nn(-c2ccccc2)c(=O)n(-c2ccccc2)c1=O [I-262] | 8 | – | – | – | –
